Test in all cases: Bacterial growth minimal inhibitory concentration, microdilution in cation-adjusted Mueller-Hinton Broth (CLSI M7-A7)
Holding throughout (type): cell-based

In one assay the test system is K. Pneumoniae A-651. As to conditions: Klebsiella pneumoniae; multiply-resistant (in particular quinolone-resistant) strain; read-out: MIC for K. Pneumoniae A-651. As to the method:
(§1) Minimal Inhibitory Concentrations (MICs; mg/L) were determined in cation-adjusted Mueller-Hinton Broth by a microdilution method following the description given in “Methods for Dilution Antimicrobial Susceptibility Tests for Bacteria that Grow Aerobically”, Approved standard, 7th ed., Clinical and Laboratory Standards Institute (CLSI) Document M7-A7, Wayne, Pa., USA (2006).
(§2) All Example compounds were tested against several Gram-positive and Gram-negative bacteria. […] K pneumoniae A-651 is a multiply-resistant (in particular quinolone-resistant) strain, while E. coli ATCC25922 and P. aeruginosa ATCC27853 are quinolone-sensitive strains.

The test system of a further assay is P. aeruginosa ATCC27853. As to conditions: Pseudomonas aeruginosa, ATCC27853; quinolone-sensitive strain; read-out: MIC for P. aeruginosa ATCC27853. The protocol:
as §1, §2

The next assay relates to E. coli ATCC25922. As to conditions: Escherichia coli, ATCC25922; quinolone-sensitive strain; read-out: MIC for E. coli ATCC25922. The protocol: as §1, §2

≈ marks a conversion by molar mass, not a printed value.

With `COc1ccc(-c2ccc3nc(CC[C@](C)(C(=O)NO)S(C)(=O)=O)sc3c2)c(F)c1` [Example 2, (R)-4-(6-(2-fluoro-4-methoxyphenyl)benzo[d]thiazol-2-yl)-N-hydroxy-2-methyl-2-(methylsulfonyl)butanamide], the MIC – broadly, the smallest concentration in the dilution series that meets the test's criterion for growth inhibition – in the assay on K. Pneumoniae A-651 is 0.25 µg/mL (≈ 0.552 µM); in the assay on P. aeruginosa ATCC27853, 2 µg/mL (≈ 4.42 µM); in the assay with E. coli ATCC25922 it was no more than 0.063 µg/mL.
As to `CC(CCc1nc2ccc(C#Cc3ccc(C4(N)COC4)cc3)cc2s1)(C(=O)NO)S(C)(=O)=O.Cc1ccc(S(=O)(=O)O)cc1` (racemic) [RE3, (RS)-4-(6-((4-(3-aminooxetan-3-yl)phenyl)ethynyl)-benzo[d]thiazol-2-yl)-N-hydroxy-2-methyl-2-(methylsulfonyl)butanamide 4-methyl-benzenesulfonate], the minimal inhibitory concentration (MIC) with K. Pneumoniae A-651 turned out to be 1 µg/mL; in the assay on P. aeruginosa ATCC27853, 8 µg/mL; in the assay with E. coli ATCC25922, 4 µg/mL.
For `C[C@@](CCc1nc2ccc(C#CC#CC3(CO)CC3)cc2s1)(C(=O)NO)S(C)(=O)=O` [Example 8, (R)-N-hydroxy-4-(6-((1-(hydroxymethyl)cyclopropyl)buta-1,3-diyn-1-yl)benzo[d]thiazol-2-yl)-2-methyl-2-(methylsulfonyl)butanamide], in that order: 0.5 µg/mL (≈ 1.12 µM), 0.5 µg/mL (≈ 1.12 µM) and 0.25 µg/mL (≈ 0.56 µM).
As for `C[C@@](CCc1nc2ccc(C#Cc3ccc(C4(O)COC4)cc3)cc2s1)(C(=O)NO)S(C)(=O)=O` [Example 3, (R)-N-hydroxy-4-(6-((4-(3-hydroxyoxetan-3-yl)phenyl)ethynyl)benzo[d]thiazol-2-yl)-2-methyl-2-(methylsulfonyl)butanamide], the MIC is 1 µg/mL (≈ 2 µM) with K. Pneumoniae A-651, 8 µg/mL (≈ 16 µM) in the assay on P. aeruginosa ATCC27853 and 4 µg/mL (≈ 7.99 µM) in the assay on E. coli ATCC25922.
With `C[C@@](CCc1nc2ccc(C#CC#CC3(O)COC3)cc2s1)(C(=O)NO)S(C)(=O)=O` (single isomer, unassigned) [Example 1], the MIC in the assay on K. Pneumoniae A-651 was determined as 0.25 µg/mL (≈ 0.557 µM); with P. aeruginosa ATCC27853, 1 µg/mL (≈ 2.23 µM); in the assay with E. coli ATCC25922, 0.25 µg/mL (≈ 0.557 µM).
As for `CC(C)(N)C#CC#Cc1ccc2nc(CC[C@](C)(C(=O)NO)S(C)(=O)=O)sc2c1` [Example 6, (R)-4-(6-(5-amino-5-methylhexa-1,3-diyn-1-yl)benzo[d]thiazol-2-yl)-N-hydroxy-2-methyl-2-(methylsulfonyl)butanamide], the MIC in the assay with K. Pneumoniae A-651 worked out at 1 µg/mL (≈ 2.31 µM); in the assay on P. aeruginosa ATCC27853, 1 µg/mL (≈ 2.31 µM); with E. coli ATCC25922, 0.25 µg/mL (≈ 0.577 µM).
For the compound `CC(C)(O)C#CC#Cc1ccc2nc(CC[C@](C)(C(=O)NO)S(C)(=O)=O)sc2c1` [Example 4, (R)-N-hydroxy-4-(6-(5-hydroxy-5-methylhexa-1,3-diyn-1-yl)benzo[d]thiazol-2-yl)-2-methyl-2-(methylsulfonyl)butanamide], the MIC in the assay with K. Pneumoniae A-651 worked out at 0.5 µg/mL (≈ 1.15 µM); with P. aeruginosa ATCC27853, 1 µg/mL (≈ 2.3 µM); in the assay on E. coli ATCC25922 it was 0.5 µg/mL (≈ 1.15 µM).
As for `C[C@@](CCc1nc2ccc(C#CC#CC3CN(C(=O)CO)C3)cc2s1)(C(=O)NO)S(C)(=O)=O` [Example 25, (R)-N-hydroxy-4-(6-((1-(2-hydroxyacetyl)azetidin-3-yl)buta-1,3-diyn-1-yl)benzo[d]thiazol-2-yl)-2-methyl-2-(methylsulfonyl)butanamide], the minimum inhibitory concentration (MIC) in the assay with K. Pneumoniae A-651 is 1 µg/mL (≈ 2.04 µM); in the assay with P. aeruginosa ATCC27853 it was 1 µg/mL (≈ 2.04 µM); with E. coli ATCC25922 it was 0.5 µg/mL (≈ 1.02 µM).
For `C[C@@](CCc1nc2ccc(C#CC#CC3(O)CCOCC3)cc2s1)(C(=O)NO)S(C)(=O)=O` [Example 18, (R)-N-hydroxy-4-(6-((4-hydroxytetrahydro-2H-pyran-4-yl)buta-1,3-diyn-1-yl)benzo[d]thiazol-2-yl)-2-methyl-2-(methylsulfonyl)butanamide], the MIC was 2 µg/mL (≈ 4.2 µM) in the assay with K. Pneumoniae A-651, 2 µg/mL (≈ 4.2 µM) with P. aeruginosa ATCC27853 and 1 µg/mL (≈ 2.1 µM) in the assay with E. coli ATCC25922.
As for `C[C@@](CCc1nc2ccc(C#CC#C[C@H]3C[C@]3(F)CO)cc2s1)(C(=O)NO)S(C)(=O)=O` (relative stereo) [Example 24, (R)-4-(6-(((1R*,2R*)-2-fluoro-2-(hydroxymethyl)cyclopropyl)buta-1,3-diyn-1-yl)benzo[d]thiazol-2-yl)-N-hydroxy-2-methyl-2-(methylsulfonyl)butanamide], the MIC in the assay on K. Pneumoniae A-651 was 0.25 µg/mL (≈ 0.538 µM); with P. aeruginosa ATCC27853, 0.25 µg/mL (≈ 0.538 µM); in the assay on E. coli ATCC25922 it was no more than 0.063 µg/mL.

(Values after patent US20170355687A1, “ANTIBACTERIAL BENZOTHIAZOLE DERIVATIVES” (Actelion Pharmaceuticals Ltd, priority 2014, published 2017).)
